# Source: US11497788B2, “Supramolecular glycosaminoglycans” (Northwestern University, priority 2015, dated 2022)
# Legend:
# [1] = test system: BMP-2, BMP-4, noggin, Shh, VEGF, FGF-1, FGF-2; assay: Surface plasmon resonance (SPR) binding to immobilized heparin binding GFs; design: species or system human (Noggin murine); conditions: analytes 50-500 nM; GFs immobilized on alginate surface; 25° C.
# Description: Surface Plasmon Resonance: The binding interactions between PAs (analytes) and growth factors (ligands) were analyzed via surface plasmon resonance (SPR) using a ProteON XPR36 system (Bio-Rad Laboratories). PA samples were thermally annealed as described for Cryo-TEM. PA solutions were spun down, pipetted for homogeneous mixing, and sequentially diluted to appropriate concentrations using Tween buffer (Milli-Q water, 0.05% Tween-20). Lyophilized powders of GFs were reconstituted to 5 μM without any carrier proteins according to the manufacturer's instructions. BMP-2, BMP-4, Shh, VEGF, and FGF-2 were further diluted to 200 nM in ProteOn Acetate Buffer pH 5.5, while FGF-1 was diluted to 200 nM in ProteOn Acetate Buffer pH 4.5. Noggin was diluted to 300 nM in ProteOn Acetate Buffer pH 5.5.
# GFs were immobilized on a ProteOn GLC-Chip via amino coupling as described previously, with slight modifications (37). First, the alginate surface was activated with a freshly prepared mixture of 20 mM 1-Ethyl-3-[3-dimethylaminopropyl]carbodiimide hydrochloride (EDC) and 5 mM N-hydroxysulfosuccinimide (Sulfo-NHS) in Milli-Q water (vertical flow cells, 30 μL/min, 3 min). Following, GFs were immobilized on vertical flow cells 1 to 5 by perfusing a freshly prepared 200 nM (or 300 nM) solution over the activated alginate surface (30 μL/min, 5 min). Blank buffer was perfused on vertical cell 6 as a reference. The remaining esters were deactivated with 1 M ethanolamine (30 μL/min, 3 min). The association and dissociation phases were performed at 25° C. in Tween buffer. Prior to each analyte injection, the horizontal flow cells 1 to 6 were regenerated with 10 mM NaOH (100 μL/min, 30 sec) and washed once with Tween buffer (30 μL/min, 3 min). Varied analyte concentrations were injected to horizontal flow cells 1 to 5, with flow cell 6 as a reference (30 μL/min, 5 min), followed by dissociation with Tween buffer (30 μL/min, 10 min). For analysis, SPR sensorgram from the reference flow cell was subtracted from all measurement flow cells. Interaction data were evaluated using the BIAEvaluation 4.1 software. […]
# BMP-2 = molecular target: T1, BMP-2 (Homo sapiens, UniProt P12643); assay: BMP-2 stability assay (ELISA) in C2C12 culture; assay type: cell-based; conditions: 75 ng/mL BMP-2; 0, 3, 9, 24 h
# T1 construct: purchased Medtronic Sofamor Danek (Minneapolis, Minn.)
# T1 sequence (P12643 283-396): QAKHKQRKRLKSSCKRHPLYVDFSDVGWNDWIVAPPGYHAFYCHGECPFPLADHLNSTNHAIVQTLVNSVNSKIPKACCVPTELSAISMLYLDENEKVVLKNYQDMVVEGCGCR
# Description: BMP-2 Stability Assay: C2C12 cells were seeded at 150,000 cells/mL (500 μL/well in a 48-well plate) and incubated overnight. Following, the media was replaced with treatment media (75 ng/mL BMP-2 in the presence/absence of PA 1, PA 4, and monosaccharide 1. The media was collected at 0, 3, 9, and 24 h and stored at −80° C. prior to BMP-2 quantification. In addition, the cell monolayers were lysed at the indicated time with a 100 μL of M-PER Mammalian Protein Extraction Reagent, supplemented with 1×Halt Protease Inhibitor Cocktail, and also stored at −80° C. prior to BMP-2 quantification. The amount of BMP-2 present in the media and cell extracts was assayed using a BMP-2 Quantikine ELISA kit (R&D Systems) according to the manufacturer's specifications.
# [2] = test system: EHBMP-2 (BMP-2 mutated at the N-terminal heparin-binding domain) in C2C12 cells; assay: ALP activity in C2C12 cells with mutant EHBMP-2; assay type: cell-based, mouse; conditions: mutant BMP-2 with negligible heparin binding
# Description: C2C12 Cell Culture: C2C12 mouse myoblasts (ATCC) were maintained in Dulbecco's Modified Eagle's Medium with high glucose and L-glutamine (DMEM, ATCC), supplemented with 100 U/mL of penicillin and 100 μg/mL streptomycin (P/S, Life Technologies) and 10% heat inactivated FBS (Life Technologies), and passaged at 80-90% confluence. Media was changed every 2 days. Passages 3 to 8 were used for experiments. Cells were grown at 37° C., 5% CO2 in a humidified atmosphere. Cells were detached following a 3 minute incubation at 37° C. with 0.05% Trypsin-EDTA (Life Technologies), then resuspended in DMEM (10% FBS). Unless stated otherwise, cells were seeded at 75,000 cells/mL (400 μL/well in a 48-well plate), and allowed to attach for a minimum of 3 hours prior to experiments.
# C2C12 Osteoblast Differentiation: PA samples were thermally annealed as described for Cryo-TEM. PA solutions were spun down, pipetted for homogeneous mixing, then diluted to 1 mM with DMEM (no FBS). […] Cells were cultured for 3 days without changing the media, and osteoblast differentiation was assessed.
# Alkaline Phosphatase Activity: Alkaline phosphatase (ALP) activity was measured as a marker of osteoblast differentiation (ref. 38; incorporated by reference in its entirety). […] The ALP activity was assessed by reading the OD at 630 nm with Cytation3 microplate reader (BioTek). […]
substance,measurement,setting,value
"3,4,6S-GlcNAc PA (VVAAEEK) [PA 1, glycosylated peptide amphiphile: Alkyne PA click-conjugated with trisulfated monosaccharide 1]",binding to heparin binding GFs (SPR),[1],strong concentration-dependent binding
same,BMP-2 stability in cell culture media,BMP-2,improved BMP-2 stability
same,ALP expression using EHBMP-2,[2],minimally affected
